Measurements published in patent publication US10639372B2, “Nucleic acid, medical nanoparticle, and pharmaceutical composition thereof” (Chung Yuan Christian University, priority 2016, dated 2020).

Experiments:
SCC4 cells = assay: Cytotoxicity test (MTT test) on SCC4 cells; format: cell-based, human; conditions: SCC4 cells treated 48 hours, MTT survival rate
Method: (§1) The human oral cancer cells used in the Examples SCC4 and SAS are cultivated in a Dulbecco's Modified Eagle's medium (DMEM) cell culture having 10% fetal bovine serum (FBS). The cells are cultivated in an environment having 5% carbon dioxide in 37 degree Celsius. When enough cells are cultivated, the subsequent analysis and tests are performed.
(§2) The MTT reagent (namely, 3-(4,5-dimethylthiazol)-2,5-diphenyltetrazoliumbromide) is a yellow dye. After the MTT reagents are reacted with succinatedehydrogenase-ubiquinone (SDH) in the mitochondrion and cytochrome C, water insoluble blue-purple crystals are formed. After the crystals are dissolved in DMSO solution, the cell survival condition may be determined by the absorbance of the solution at 570 nm, so that the survival ratio of the cells can be calculated.
(§3) DMEM cell culture without serum are provided for preparing MTT solution having a concentration of 5 milligrams per milliliter. […]
(§4) The SCC4 or SAS cells are planted in a 48-well plate (each having 1×10^4 cells). […] And then, the absorbance of the supernatant at 570 nm can be obtained by an enzyme-linked immunosorbent assay (ELISA) reader (model: VersaMax™ Microplate Reader, Molecular devices, Sunnyvale, USA).

SAS cells = assay: Cytotoxicity test (MTT test) on SAS cells; format: cell-based, human; conditions: SAS cells treated 48 hours, MTT survival rate
Method: as §1, §2, §3, §4

Substance	IC50 for SCC4 cells (SCC4 cells) [microgram per milliliter]	IC50 for SAS cells (SAS cells) [microgram per milliliter]
pyropheophorbide-phosphatidic acid [pyro-PA]	0.8	0.1
photosan	2.4	1.75
